Test results from US8470736B2, “Turfgrass quality” (Syngenta Crop Protection, LLC, priority 2008, dated 2013).

Tests used:
Type in all cases: in vivo
[1] = system: bentgrass (Agrostis palustris) variety Crenshaw; assay: Turfgrass quality assessment, Example 1
Procedure: (§1) Compositions comprising methyl jasmonate (as a SL formulation, purchased from Fischer), trinexapac-ethyl (in the form of Primo MAXX®), or both (as a tank mix) were tested at various rates for effects on bentgrass (Agrostis palustris) variety Crenshaw. All treatments included the adjuvant NIS, at 0.25% v/v. Assessments of percentage injury to the turfgrass, and turfgrass quality (on a standard scale of 1 to 9) were made at various time intervals after treatment.

[2] = system: bentgrass (Agrostis palustris) variety Crenshaw; assay: Turfgrass colour assessment, Example 1; details: 43 DA-A (17 DA-B)
Procedure: as §1

[3] = system: bentgrass (Agrostis palustris) variety A1; assay: Colour (greenness) assessment, Example 2; details: TXP 0 g ai/ha
[4] = system: bentgrass (Agrostis palustris) variety Crenshaw; assay: Percentage injury to the turfgrass, Example 1; details: TXP 96 g ai/ha, methyl jasmonate 0 g ai/ha
Procedure: Compositions comprising methyl jasmonate (as a SL formulation, purchased from Fischer), trinexapac-ethyl (in the form of Primo MAXX®), or both (as a tank mix) were tested at various rates for effects on bentgrass (Agrostis palustris) variety Crenshaw. All treatments included the adjuvant NIS, at 0.25% v/v.

[5] = system: bentgrass (Agrostis palustris) variety A1; assay: Colour (greenness) assessment, Example 2; details: jasmonic acid 0 g ai/ha
Procedure: Compositions comprising methyl jasmonate (purchased from Aldrich), trinexapac-ethyl (in the form of Primo MAXX® 120EC), or both (as a tank mix) were tested at various rates for effects on bentgrass (Agrostis palustris) variety A1. Assessments of greenness were made at 5 and 12 days after the second treatment.

Question: Which results are given for `CC/C=C\C[C@H]1C(=O)CC[C@@H]1CC(=O)OC` [Methyl jasmonate only, methyl (1R,2R)-3-Oxo-2-(2Z)-2-pentenyl-cyclopentaneacetate]?
Answer: Quality (scale: 1 poor to 9 excellent) ([1]; TXP 0 g ai/ha, methyl jasmonate 168 g ai/ha, 33 DA-A (7 DA-B)): 7.1; Quality (scale: 1 poor to 9 excellent) ([1]; TXP 0 g ai/ha, methyl jasmonate 168 g ai/ha, 43 DA-A (17 DA-B)): 7.2; Quality (scale: 1 poor to 9 excellent) ([1]; TXP 0 g ai/ha, methyl jasmonate 168 g ai/ha, 56 DA-A (30 DA-B)): 7.0; Quality (scale: 1 poor to 9 excellent) ([1]; TXP 0 g ai/ha, methyl jasmonate 336 g ai/ha, 33 DA-A (7 DA-B)): 7.0; Quality (scale: 1 poor to 9 excellent) ([1]; TXP 0 g ai/ha, methyl jasmonate 336 g ai/ha, 43 DA-A (17 DA-B)): 7.2; Quality (scale: 1 poor to 9 excellent) ([1]; TXP 0 g ai/ha, methyl jasmonate 336 g ai/ha, 56 DA-A (30 DA-B)): 7.0; Quality (scale: 1 poor to 9 excellent) ([1]; TXP 0 g ai/ha, methyl jasmonate 670 g ai/ha, 33 DA-A (7 DA-B)): 6.9; Quality (scale: 1 poor to 9 excellent) ([1]; TXP 0 g ai/ha, methyl jasmonate 670 g ai/ha, 43 DA-A (17 DA-B)): 7.0; Quality (scale: 1 poor to 9 excellent) ([1]; TXP 0 g ai/ha, methyl jasmonate 670 g ai/ha, 56 DA-A (30 DA-B)): 7.0; Colour (scale: 1 poor to 9 excellent) ([2]; TXP 0 g ai/ha, methyl jasmonate 168 g ai/ha): 7.2; Colour (scale: 1 poor to 9 excellent) ([2]; TXP 0 g ai/ha, methyl jasmonate 336 g ai/ha): 7.2; Colour (scale: 1 poor to 9 excellent) ([2]; TXP 0 g ai/ha, methyl jasmonate 670 g ai/ha): 7.0; Greenness (scale of 1-10 by comparison with the untreated control) ([3]; jasmonic acid 168 g ai/ha, 5 DA-B): 0.0; Greenness (scale of 1-10 by comparison with the untreated control) ([3]; jasmonic acid 168 g ai/ha, 12 DA-B): 0.5; Greenness (scale of 1-10 by comparison with the untreated control) ([3]; jasmonic acid 336 g ai/ha, 5 DA-B): 0.0; Greenness (scale of 1-10 by comparison with the untreated control) ([3]; jasmonic acid 336 g ai/ha, 12 DA-B): 0.0; Greenness (scale of 1-10 by comparison with the untreated control) ([3]; jasmonic acid 672 g ai/ha, 5 DA-B): 0.0; Greenness (scale of 1-10 by comparison with the untreated control) ([3]; jasmonic acid 672 g ai/ha, 12 DA-B): 0.0

Question: How did the “Quality (scale: 1 poor to 9 excellent)” value ([1]; TXP 96 g ai/ha, methyl jasmonate 0 g ai/ha, 33 DA-A (7 DA-B)) turn out when `CCOC(=O)C1CC(=O)C(=C(O)C2CC2)C(=O)C1` (stereo not shown) [Trinexapac-ethyl only, trinexapac-ethyl] was run?
Answer: 7.2

Question: What about the “Quality (scale: 1 poor to 9 excellent)” value ([1]; TXP 96 g ai/ha, methyl jasmonate 0 g ai/ha, 43 DA-A (17 DA-B)) of the same molecule?
Answer: 7.4

Question: And the “Quality (scale: 1 poor to 9 excellent)” value ([1]; TXP 96 g ai/ha, methyl jasmonate 0 g ai/ha, 56 DA-A (30 DA-B))?
Answer: 7.0

Question: And the “Colour (scale: 1 poor to 9 excellent)” value ([2]; TXP 96 g ai/ha, methyl jasmonate 0 g ai/ha)?
Answer: 7.3

Question: And the “Injury (%)” value ([4]; 8 DA-A)?
Answer: 5%

Question: What about the “Injury (%)” value ([4]; 14 DA-A) of the same molecule?
Answer: 7%

Question: And the “Greenness (scale of 1-10 by comparison with the untreated control)” value (shortened to “Greenness”) ([5]; TXP 57 g ai/ha, 5 DA-B)?
Answer: 0.0

Question: What about the “Greenness” value ([5]; TXP 57 g ai/ha, 12 DA-B) of the same molecule?
Answer: 0.0

Question: What about the “Greenness” value ([5]; TXP 96 g ai/ha, 5 DA-B) of the same molecule?
Answer: 3.5

Question: What about the “Greenness” value ([5]; TXP 96 g ai/ha, 12 DA-B) of the same molecule?
Answer: 3.5
